Data as given in US10358464B2, “Specific binding sites in collagen for integrins and use thereof” (The Texas A&M University System, priority 2005, dated 2019).
pKd: −log10 of the molar value. Non-standard residues stand in square brackets, D forms with d. Residues, ends and D or L forms follow the SMILES beside them. Hyp = O=C(O)[C@@H]1C[C@@H](O)CN1

How the values were obtained:
α2I = α2I (Homo sapiens, UniProt P17301); test: SPR, I domain binding to immobilized synthetic collagen peptide
[1] = biological target: T1, α1I binding to type III collagen (Homo sapiens, UniProt P56199); test: Competition ELISA, inhibition of I domain binding to type III collagen; conditions: 100 μM peptide, 0.5 μM α1I, type III procollagen-coated wells
T1 construct: recombinant I domains from integrins α1 and α2 (α1I and α2I); made in house

MRC-5 cells = test: Cell attachment assay on coated substrates; type: cell-based, human; conditions: room temperature
Experimental: Reagents and Cell Culture. The human recombinant mature type III collagen used for cell attachment assays was purchased from FibroGen. All cell culture media components were purchased from Invitrogen. The human lung fibroblast cell line MRC-5 was purchased from American Type Culture Collection (ATCC) (Manassas, Va.). The cells were cultured and passaged in Dulbecco's modified Eagle's medium (DMEM) supplemented with 10% fetal bovine serum, 100 unit/ml penicillin and 100 μg/ml streptomycin. The cells were grown to subconfluence and passaged every 2-3 days.
Cell attachment assay. MRC-5 cells were starved overnight in serum deficient DMEM containing penicillin and streptomycin, then detached using 1 mM EDTA and 0.025% trypsin at 37° C. for 2 minutes. The cells were washed with PBS and resuspended in DMEM containing 0.2% BSA supplemented with 2 mM MgCl2. 100 μl of the cell suspension (˜1.5×10^5 cells/ml) were added to the microtiter wells coated with different concentrations of collagen or collagen peptides and blocked with PBS containing 0.5% (w/v) BSA. After incubation at room temperature for 45 min, the wells were washed with PBS. Attached cells were fixed with 3% p-formaldehyde for 10 min at room temperature. Following washing with cold Tris-buffered saline (TBS), pH 7.4, cells were fixed again in 20% methanol for 10 min and stained with 0.5% crystal violet for 5 min. The wells were thoroughly washed with distilled water and air-dried. Sodium citrate (0.1 M) was then added to the wells to dissolve the dye and the absorbance at 590 nm was measured. The maximum cell attachment on type III collagen was set to 100% and, residual attachment on BSA was set to 0%.
Adhesion of MRC-5 cells to peptide#1 (SEQ ID NO: 15) substrates. […] Wells in 96-well plates were coated with increasing concentrations of type III collagen, peptide #1 (SEQ ID NO: 15) or #2 (SEQ ID NO: 16) and 1.5×10^4 MRC-5 cells were added to each well. The plate was incubated for 45 min at room temperature and adhering cells were quantified as described herein.

[2] = biological target: T2, α2I binding to type III collagen (Homo sapiens, UniProt P17301); test: Competition ELISA, inhibition of I domain binding to type III collagen; conditions: 100 μM peptide, 5 μM α2I, type III procollagen-coated wells
T2 construct: recombinant I domains from integrins α1 and α2 (α1I and α2I); made in house

α1I = α1I (Homo sapiens, UniProt P56199); test: SPR, I domain binding to immobilized synthetic collagen peptide
[3] = CD temperature-dependent denaturation of triple helix; type: physicochemical; conditions: CD ellipticity at 225 nm, 20° C./hr, Boltzmann sigmoidal fit
Experimental: Circular Dichroism (CD) Spectroscopy. Synthetic collagen peptides were analyzed by CD spectroscopy, as described previously (18) with the following modifications. Briefly, peptides were dissolved in HBS to a concentration of 50 μM. CD spectra were collected on a Jasco J720 spectropolarimeter (Tokyo, Japan) from 190 to 240 nm, with bandwidth of 1 nm and integrated for 1 s at 0.2 nm intervals. Samples were measured at room temperature using cuvettes with 0.02 cm path length. For temperature-dependent denaturation analysis, […] of peptides were added to a thermostatically controlled cuvette with a 0.5 cm path length. Thermal transition profiles were recorded at 225 nm as described above with a temperature slope of 20° C./hr. To calculate the temperature melting points, the thermal transition profiles were fitted with Boltzmann sigmoidal model using the GraphPad Prism™ software (GraphPad Software Inc., San Diego, Calif.).

[4] = 30 nM I domain, 2 mM EDTA versus 1 mM MgCl2

Sequence of α1I (P56199 161-360 limits assumed): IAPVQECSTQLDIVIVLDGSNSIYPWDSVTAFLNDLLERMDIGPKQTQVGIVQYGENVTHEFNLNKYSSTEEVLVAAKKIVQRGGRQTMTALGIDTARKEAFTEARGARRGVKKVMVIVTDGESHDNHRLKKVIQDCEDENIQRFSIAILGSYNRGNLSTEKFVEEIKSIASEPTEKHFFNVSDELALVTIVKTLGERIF
Sequence of α2I (P17301 188-365 limits assumed): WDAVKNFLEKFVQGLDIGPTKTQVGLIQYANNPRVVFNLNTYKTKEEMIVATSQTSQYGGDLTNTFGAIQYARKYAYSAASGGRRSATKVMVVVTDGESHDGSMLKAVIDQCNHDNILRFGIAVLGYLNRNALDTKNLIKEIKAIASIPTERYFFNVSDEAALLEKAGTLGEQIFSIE
T1 sequence (P56199 161-360 limits assumed): as the sequence (P56199 161-360 limits assumed) above
T2 sequence (P17301 188-365 limits assumed): as the sequence (P17301 188-365 limits assumed) above

- pKd (α2I): 6.55
- koff (α2I): 0.012 s⁻¹
- kon (α2I): 44000 M⁻¹ s⁻¹
- binding in the presence of EDTA (α2I; [4]): completely abolished binding
- dissociate rate (α2I; 15° C., 1:1 binding model): 12 s^−1×10^3
- inhibition at 100 µM [1]: 100%
- inhibition at 100 µM [2]: 80%
- pKd (α1I): 7.64
- koff (α1I): 0.0013 s⁻¹
- kon (α1I): 56000 M⁻¹ s⁻¹
- binding in the presence of EDTA (α1I; [4]): completely abolished binding
- dissociate rate (α1I; 15° C., 1:1 binding model): 1.3 s^−1×10^3
- melting temperature (Tm) of triple helix [3]: 43 °C
Structure (SMILES): CC(C)C[C@H](NC(=O)CNC(=O)[C@H](CCCNC(=N)N)NC(=O)[C@H](CCC(=O)O)NC(=O)CNC(=O)[C@@H]1C[C@@H](O)CN1C(=O)[C@H](CCCNC(=N)N)NC(=O)CNC(=O)[C@@H]1C[C@@H](O)CN1C(=O)[C@H](CCCNC(=N)N)NC(=O)CNC(=O)[C@@H]1C[C@@H](O)CN1C(=O)[C@@H]1CCCN1C(=O)CNC(=O)[C@@H]1C[C@@H](O)CN1C(=O)[C@@H]1CCCN1C(=O)CNC(=O)[C@@H]1C[C@@H](O)CN1C(=O)[C@@H]1CCCN1C(=O)CN)C(=O)N1C[C@H](O)C[C@H]1C(=O)NCC(=O)N1CCC[C@H]1C(=O)N1C[C@H](O)C[C@H]1C(=O)NCC(=O)N1CCC[C@H]1C(=O)N1C[C@H](O)C[C@H]1C(=O)NCC(=O)N1CCC[C@H]1C(=O)N1C[C@H](O)C[C@H]1C(N)=O [peptide #1, (GPO)3GROGROGERGLO(GPO)3] (H-GP[Hyp]GP[Hyp]GP[Hyp]GR[Hyp]GR[Hyp]GERGL[Hyp]GP[Hyp]GP[Hyp]GP[Hyp]-NH2; N-terminus and C-terminus assumed)
- adhesion of MRC-5 cells to coated substrate (MRC-5 cells; increasing coating concentrations, 1.5×10^4 cells per well, 45 min): could support adhesion of MRC-5 cells in a dose-dependent manner
- cell spreading on coated substrate (MRC-5 cells; 1.5 hrs (data not shown)): Considerable cell spreading
